The test concerns recombinant human HDACs. The test is described as follows: HDAC enzymatic assay (LabChip capillary electrophoresis). Type of test: biochemical. Particulars: 5 nM HDAC enzyme, 1 uM substrate, 5 hours pre-incubation, 17 hours reaction at 25°C; isoform not given. The procedure: All recombinant human HDACs were purchased from BPS Bioscience. The substrate, FAM-TSRHK(AC)KL-CONH, was synthesized at NanoSyn. Final assay reactions contained 100 mM HEPES (pH 7.5), 50 mM KCl, 0.1% BSA, 0.01% Triton X-100, 1% DMSO, 1 uM substrate and 5 nM HDAC enzyme. Enzyme and compounds were pre-incubated at 25°C for 5 hours and reactions were initiated by addition of substrate. 10 uL reactions were incubated for 17 hours at 25°C and terminated by the addition of 40 uL of buffer containing 100 mM HEPES (pH 7.5), 0.1% BSA, 0.01% Triton X-100 and 0.05% SDS. Substrate and product peptides present in each sample were separated electrophoretically using the LabChip 3000 capillary electrophoresis instrument. Change in the relative fluorescence intensity of the substrate and product peaks reflects enzyme activity. Reaction progress was determined as the product to sum ratio (PSR): P/(S+P), where P is the peak height of the product peptide and S is the peak height of the substrate peptide. Reactions were performed in duplicate at 12 concentrations, (3X serial dilutions starting at 30 uM). IC50 values were calculated using a 4 Parameter Logistic Model.

Some results are limits rather than exact numbers.

Regarding `Nc1ccc(-c2ccc(F)cc2)nc1NC(=O)N1CCN(C(=O)[C@@H]2C[C@H]2c2ccccc2)CC1` (stereo in doubt) [Compound 225], the IC50 was 0.5 to 5 µM.

For `Nc1ccc(-c2ccc(F)cc2)nc1NC(=O)[C@H]1[C@@H]2CN(C3COC3)C[C@@H]21` (stereo in doubt) [Compound 239], the IC50 is more than 5 µM.

For `CN1CC(N2C[C@@H]3[C@H](C2)[C@H]3C(=O)Nc2nc(-c3ccc(F)cc3)ccc2N)C1` (stereo in doubt) [Compound 241], the concentration for half-maximal inhibition (IC50) is more than 5 µM.

In the case of `Nc1ccc(-c2ccc(F)cc2)nc1NC(=O)[C@H]1[C@@H]2CN(C3CCOCC3)C[C@@H]21` (stereo in doubt) [Compound 264], the IC50 is more than 5 µM.

For `Cn1cc(CN2CCCC3(CCN(C(=O)Nc4nn(-c5ccc(F)cc5)cc4N)C3)C2)cn1` (stereo not shown) [Compound 123], the 50% inhibitory concentration (IC50) was more than 5 µM.

On to `COc1cccc(CN2CCCC3(CCN(C(=O)Nc4nn(-c5ccc(F)cc5)cc4N)C3)C2)c1` (stereo not shown) [Compound 124], for which the half-maximal inhibitory concentration (IC50) is more than 5 µM.

On to `Nc1cn(-c2ccc(F)cc2)nc1NC(=O)N1CCN(C(=O)[C@@H]2C[C@H]2c2ccccc2)CC1` [Compound 125], for which the IC50 was in the range of 0.5 to 5 µM.

With `Cc1cnc(C(=O)Nc2nn(-c3ccccc3)cc2N)s1` [Compound 126], the half-maximal inhibitory concentration (IC50) was 0.5 to 5 µM.

Turning to `Nc1ccc(-c2ccc(F)cc2)nc1NC(=O)N1CC2CC(N3CCC3)CC2C1` (stereo not shown) [Compound 143], the IC50 is 0.5 to 5 µM.

`Nc1ccc(-c2ccc(F)cc2)nc1NC(=O)N1Cc2cnc(N3CCC3)cc2C1` [Compound 147]: the IC50 was in the range of 0.1 to 0.5 µM.

Take `Nc1ccc(-c2ccc(F)cc2)nc1NC(=O)N1Cc2cnc(N3CCOCC3)cc2C1` [Compound 150]: the IC50 is 0.1 to 0.5 µM.

`Cc1cc2c(cn1)CN(C(=O)Nc1nc(-c3ccc(F)cc3)ccc1N)C2` [Compound 151]: the half-maximal inhibitory concentration (IC50) was 0.1 to 0.5 µM.

As to `CN1CC(N2CC3CN(C(=O)Nc4nc(-c5ccc(F)cc5)ccc4N)CC3C2)C1` (stereo not shown) [Compound 152], the IC50 lay within 0.5 to 5 µM.

In the case of `CN1CCc2sc(C(=O)Nc3nc(-c4ccc(F)cc4)ccc3N)nc2C1` [Compound 153], the IC50 was in the range of 0.1 to 0.5 µM.

For `Nc1ccc(-c2ccc(F)cc2)nc1NC(=O)N1Cc2cc(N3CCC3)cnc2C1` [Compound 157], the IC50 lay in the range of 0.1 to 0.5 µM.

On to `Nc1ccc(-c2ccc(F)cc2)nc1NC(=O)N1Cc2cc(N3CCOCC3)cnc2C1` [Compound 158], for which the IC50 was in the range of 0.1 to 0.5 µM.

In the case of `CN1CCN(c2cc3c(cn2)CN(C(=O)Nc2nc(-c4ccc(F)cc4)ccc2N)C3)CC1` [Compound 160], the half-inhibitory concentration (IC50) was in the range of 0.1 to 0.5 µM.

Consider `Nc1ccc(-c2cccnc2)nc1NC(=O)c1nc2c(s1)CCN(CCF)C2` [Compound 164], for which the IC50 lay within 0.5 to 5 µM.

Take `Nc1ccc(-c2ccc(F)cc2)nc1NC(=O)c1nc2c(s1)CCN(CCF)C2` [Compound 165]: the IC50 lay within 0.1 to 0.5 µM.

On to `CN(C)CCN1CC2CN(C(=O)Nc3nc(-c4ccc(F)cc4)ccc3N)CC2C1` (stereo not shown) [Compound 166], for which the IC50 lay within 0.5 to 5 µM.

Consider `Nc1ccc(-n2cccn2)nc1NC(=O)N1CC2CN(CCF)CC2C1` (stereo not shown) [Compound 167], for which the half-maximal inhibitory concentration (IC50) is more than 5 µM.

Consider `CN1CCN(Cc2cnc3c(c2)CN(C(=O)Nc2nc(-c4ccc(F)cc4)ccc2N)C3)CC1` [Compound 168], for which the IC50 lay in the range of 0.1 to 0.5 µM.

For `CN1CCC(N2CC3CN(C(=O)Nc4nc(-c5ccc(F)cc5)ccc4N)CC3C2)CC1` (stereo not shown) [Compound 169], the concentration for half-maximal inhibition (IC50) was 0.5 to 5 µM.

`Cc1ccc(C2CN(C(=O)Nc3nc(-c4ccc(F)cc4)ccc3N)C2)cc1` [Compound 170]: the IC50 lay in the range of 0.5 to 5 µM.

For the compound `Nc1ccc(-c2cccnc2)nc1NC(=O)N1CCC2(CCCNC2)C1` (stereo not shown) [Compound 171], the IC50 was more than 5 µM.

Take `Nc1ccc(-c2ccc(F)cc2)nc1NC(=O)N1CC2CC(NC3COC3)CC2C1` (stereo not shown) [Compound 172]: the IC50 fell in the range of 0.5 to 5 µM.

Consider `COc1ccc(-c2ccc(N)c(NC(=O)N3Cc4ccncc4C3)n2)cc1` [Compound 173], for which the 50% inhibitory concentration (IC50) was in the range of 0.5 to 5 µM.

As to `Nc1ccc(-c2ccco2)nc1NC(=O)N1CC2CN(CCF)CC2C1` (stereo not shown) [Compound 174], the 50% inhibitory concentration (IC50) is more than 5 µM.

As for `Nc1ccc(-c2ccco2)nc1NC(=O)N1CC2CN(Cc3ccccc3F)CC2C1` (stereo not shown) [Compound 175], the 50% inhibitory concentration (IC50) is more than 5 µM.

`Nc1ccc(-c2ccc(F)cc2)nc1NC(=O)N1CC2CN(Cc3ccccc3F)CC2C1` (stereo not shown) [Compound 176]: the IC50 was 0.5 to 5 µM.

Regarding `Nc1ccc(-n2cccn2)nc1NC(=O)N1CC2CN(Cc3ccccc3F)CC2C1` (stereo not shown) [Compound 177], the IC50 is more than 5 µM.

Regarding `CN1CCN(Cc2cccc3c2CN(C(=O)Nc2nc(-c4ccc(F)cc4)ccc2N)C3)CC1` [Compound 178], the half-inhibitory concentration (IC50) is more than 5 µM.

`CN1CCN(C2CC3CN(C(=O)Nc4nc(-c5ccc(F)cc5)ccc4N)CC3C2)CC1` (stereo not shown) [Compound 179]: the IC50 is 0.5 to 5 µM.

As for `Nc1ccc(-c2ccc(F)cc2)nc1NC(=O)N1CC2CC(N3CCOCC3)CC2C1` (stereo not shown) [Compound 181], the IC50 was more than 5 µM.

Consider `Nc1ccc(-c2ccco2)nc1NC(=O)N1CC2CN(C3COC3)CC2C1` (stereo not shown) [Compound 182], for which the IC50 was more than 5 µM.

`Nc1ccc(-c2ccc(F)cc2)nc1NC(=O)N1CC2CN(CCF)CC2C1` (stereo not shown) [Compound 183]: the IC50 is more than 5 µM.

Take `CN1CC2CN(C(=O)Nc3nc(-n4cccn4)ccc3N)CC2C1` (stereo not shown) [Compound 184]: the half-inhibitory concentration (IC50) was more than 5 µM.

Turning to `Nc1ccc(-n2cccn2)nc1NC(=O)N1Cc2cc(F)cnc2C1` [Compound 185], the IC50 fell in the range of 0.5 to 5 µM.

On to `Nc1ccc(-c2ccc(F)cc2)nc1NC(=O)N1Cc2cc(F)cnc2C1` [Compound 186], for which the IC50 fell in the range of 0.5 to 5 µM.

With `COc1ccc(-c2ccc(N)c(NC(=O)N3Cc4cc(F)cnc4C3)n2)cc1` [Compound 187], the IC50 is 0.5 to 5 µM.

With `Nc1ccc(-c2ccc(F)cc2)nc1NC(=O)N1CC2CC(N3CC(F)C3)CC2C1` (stereo not shown) [Compound 188], the concentration for half-maximal inhibition (IC50) is 0.5 to 5 µM.

Turning to `Nc1ccc(-c2ccco2)nc1NC(=O)N1CC2CC(N3CC(F)C3)CC2C1` (stereo not shown) [Compound 189], the IC50 is more than 5 µM.

With `Nc1ccc(-n2cccn2)nc1NC(=O)N1CC2CC(N3CC(F)C3)CC2C1` (stereo not shown) [Compound 190], the IC50 was more than 5 µM.

As to `Nc1ccc(-c2ccccc2)nc1NC(=O)N1CC2CC(NC3COC3)CC2C1` (stereo not shown) [Compound 191], the IC50 was in the range of 0.5 to 5 µM.

Regarding `Nc1ccc(-c2ccc(F)cc2)nc1NC(=O)C1CN(c2ccccn2)C1` [Compound 192], the IC50 was more than 5 µM.

With `Nc1ccc(-c2ccco2)nc1NC(=O)C1CN(c2ccccn2)C1` [Compound 193], the IC50 is more than 5 µM.

Turning to `Nc1ccc(-c2ccccc2)nc1NC(=O)CN1CCn2cncc2C1` [Compound 194], the half-inhibitory concentration (IC50) is more than 5 µM.

`Nc1ccc(-c2ccccc2)nc1NC(=O)C1CN(c2ccccn2)C1` [Compound 195]: the concentration for half-maximal inhibition (IC50) is more than 5 µM.

For `CC(=O)N1CCN(CC(=O)Nc2nc(-c3ccccc3)ccc2N)CC1` [Compound 196], the half-inhibitory concentration (IC50) was more than 5 µM.

Regarding `Nc1ccc(-c2ccccc2)nc1NC(=O)N1CCn2ccnc2C1` [Compound 197], the half-inhibitory concentration (IC50) was more than 5 µM.

With `Nc1ccc(-c2ccco2)nc1NC(=O)C1CN(Cc2ccccc2)C1` [Compound 198], the IC50 was more than 5 µM.

Regarding `Nc1ccc(-c2ccccc2)nc1NC(=O)N1CC2CN(C3COC3)CC2C1` (stereo not shown) [Compound 199], the IC50 was more than 5 µM.

In the case of `CN1CC2CN(C(=O)Nc3nc(-c4ccc(F)cc4)ccc3N)CC2C1` (stereo not shown) [Compound 201], the IC50 is more than 5 µM.

On to `Nc1ccc(-c2ccc(F)cc2)nc1NC(=O)N1CC2CN(C3COC3)CC2C1` (stereo not shown) [Compound 203], for which the IC50 is more than 5 µM.

For `CN1CC(C(=O)Nc2nc(-c3ccc(F)cc3)ccc2N)C1` [Compound 204], the half-maximal inhibitory concentration (IC50) is more than 5 µM.

As to `Nc1ccc(-n2cccn2)nc1NC(=O)C1CN(Cc2ccccc2)C1` [Compound 205], the IC50 was more than 5 µM.

Take `CN1CCn2cc(C(=O)Nc3nc(-c4ccccc4)ccc3N)nc2C1` [Compound 206]: the IC50 was 0.5 to 5 µM.

Turning to `Nc1ccc(-c2ccccc2)nc1NC(=O)c1cn2c(n1)CNCC2` [Compound 208], the IC50 was in the range of 0.5 to 5 µM.

Take `CN1CCC2(CC1)CCN(C(=O)Nc1nc(-c3cccnc3)ccc1N)C2` [Compound 210]: the half-maximal inhibitory concentration (IC50) is more than 5 µM.

As to `CN1CCCC2(CCN(C(=O)Nc3nc(-c4cccnc4)ccc3N)C2)C1` (stereo not shown) [Compound 211], the IC50 is more than 5 µM.

Regarding `Nc1ccc(-c2ccccc2)nc1NC(=O)N1CCn2cncc2C1` [Compound 212], the IC50 is more than 5 µM.

Consider `Nc1ccc(-c2cccnc2)nc1NC(=O)N1Cc2nccnc2C1` [Compound 214], for which the IC50 was 0.5 to 5 µM.

For the compound `Cn1cc(CN2CCC3(CC2)CCN(C(=O)Nc2nc(-c4cccnc4)ccc2N)C3)cn1` [Compound 215], the concentration for half-maximal inhibition (IC50) is more than 5 µM.

`Nc1ccc(-c2cccnc2)nc1NC(=O)N1Cc2cc(F)cnc2C1` [Compound 218]: the IC50 is more than 5 µM.

With `Nc1ccc(-c2cccnc2)nc1NC(=O)c1cn2c(n1)CNCC2` [Compound 219], the IC50 was more than 5 µM.

Turning to `Nc1ccc(-c2cccnc2)nc1NC(=O)N1CC2(CCNCC2)C1` [Compound 220], the IC50 is more than 5 µM.

As for `Nc1ccc(-c2cccnc2)nc1NC(=O)N1CCCC1` [Compound 221], the IC50 is more than 5 µM.

Take `COc1cccc(CN2CCCC3(CCN(C(=O)Nc4nc(-c5ccc(F)cc5)ccc4N)C3)C2)c1` (stereo not shown) [Compound 222]: the half-inhibitory concentration (IC50) was more than 5 µM.

On to `Cn1cc(CN2CCCC3(CCN(C(=O)Nc4nc(-c5ccc(F)cc5)ccc4N)C3)C2)cn1` (stereo not shown) [Compound 223], for which the half-inhibitory concentration (IC50) is more than 5 µM.

For the compound `Nc1ccc(-c2ccc(F)cc2)nc1NC(=O)N1CCN2CCCC2C1` (stereo not shown) [Compound 224], the concentration for half-maximal inhibition (IC50) was more than 5 µM.

What is called IC50 is the midpoint of a concentration-inhibition curve.

Values taken from EP3319959B1, “HETERO-HALO INHIBITORS OF HISTONE DEACETYLASE” (Alkermes, Inc., priority 2015, dated 2017).
